Patent US10138255B2, “Piperazine derivatives as HIV protease inhibitors” (Merck Sharp & Dohme Corp., priority 2014, dated 2018)

Test system: HIV-1 (H9IIIB strain)
Assay: Cell-Based HIV Infection Assay Using a Reporter (MT4-GFP cells)
Conditions: Human immunodeficiency virus 1, inflection point (IP) of viral growth inhibition; MT4-GFP cells infected with HIV-1 H9IIIB; 50% normal human serum; mean of at least two independent experiments; read-out: Cell Based IP (50% NHS)
Method: Cell-Based HIV Infection Assay Using a Reporter (“Cell-Based”):
MT4-GFP cells contain a stably integrated HIV long terminal repeat promoter directing the transcription of green fluorescent protein (GFP). When HIV infects the cell, GFP is produced and the cell becomes green. MT4-GFP cells (250,000 cells/mL) were bulk-infected with HIV-1 (H9IIIB strain) at low multiplicity of infection (MOI) in RPM 1640 media, supplemented with 10% FBS for 24 h. Cells were then washed once in RPMI 1640 plus 10% FBS and resuspended in RPMI plus 50% normal human serum (NHS). Test compounds were serial-diluted in DMSO using an ECHO liquid dispenser. A control well included a combination of three HIV drugs (an inhibitor of HIV protease, integrase strand transfer and a non-nucleoside reverse transcriptase inhibitor; triple drug). The infected MT4-GFP cells were added to a 384-well poly-D-lysine coated black plate with clear bottom in which the diluted test compounds were placed. The cells were seeded in the plate at 8,000 cells per well and the final DMSO concentration was 0.4%. Infected cells were quantified at both 24 and 48 h post incubation using an Acumen eX3 plate reader. Viral reproductive ratio (R0) was determined using the number of infected cells at 48 h divided by the number of infected cells at 24 h. Percent viral growth inhibition was calculated by [1−(R−Rtripledrug)/(RDMSO−Rtripledrug)]*100. Compound potency inflection point (IP) was determined with use of a 4-parameter dose response curve analysis.
Data shown in the table reflects the mean of at least two independent experiments.

| Compound | EC50 [nM] |
| --- | --- |
| COC(=O)N[C@H](C(=O)Nc1cccc(F)c1CCC1CNC2CCCS(=O)(=O)N1C2)[C@@H](c1ccc(F)cc1)c1cc(F)cc(F)c1 (stereo partly drawn) [Example 35, methyl [(1S,2S)-2-(3,5-difluorophenyl)-1-({2-[2-(2,2-dioxido-2-thia-1,7-diazabicyclo[4.3.1]dec-9-yl)ethyl]-3-fluorophenyl}carbamoyl)-2-(4-fluorophenyl)ethyl]carbamate] | 3.8 |
| N[C@H](C(=O)Nc1cccc(F)c1CCC1CNC2CCCS(=O)(=O)N1C2)[C@@H](c1ccc(Cl)cc1)C1CCOCC1 (stereo partly drawn) [Example 36, (βR)-4-chloro-N-{2-[2-(2,2-dioxido-2-thia-1,7-diazabicycio[4.3.1]dec-9-yl)ethyl]-3-fluorophenyl}-β-(tetrahydro-2H-pyran-4-yl)-L-phenylalaninamide] | 22 |
| COC(=O)N[C@H](C(=O)Nc1cccc(F)c1CCC1CNC2CCCS(=O)(=O)N1C2)[C@@H](c1ccc(Cl)cc1)C1CCOCC1 (stereo partly drawn) [Example 37, methyl [(1S,2R)-2-(4-chlorophenyl)-1-({2-[2-(2,2-dioxido-2-thia-1,7-diazabicyclo[4.3.1]dec-9-yl)ethyl]-3-fluorophenyl}carbamoyl)-2-(tetrahydro-2H-pyran-4-yl)ethyl]carbamate] | 13 |
| CC(C)[C@H](c1ccc(Cl)cc1)[C@H](N)C(=O)Nc1cccc(F)c1CCC1CNC2CCCS(=O)(=O)N1C2 (stereo partly drawn) [Example 38, (βR)-4-chloro-N-{2-[2-(2,2-dioxido-2-thia-1,7-diazabicyclo[4.3.1]dec-9-yl)ethyl]-3-fluorophenyl}-β-(1-methylethyl)-L-phenylalaninamide] | 28 |
| N[C@H](C(=O)Nc1cccc(F)c1CC[C@H]1CNC2CCCS(=O)(=O)N1C2)C1(c2ccc(F)cc2)CCC(F)(F)CC1 (stereo partly drawn) [Example 39, (2S)-2-amino-2-[4,4-difluoro-1-(4-fluorophenyl)cyclohexyl]-N-(2-{2-[(9S)-2,2-dioxido-2-thia-1,7-diazabicyclo[4.3.1]dec-9-yl]ethyl}-3-fluorophenyl)ethanamide] | 200 |
| N[C@H](C(=O)Nc1cccc(F)c1CC[C@H]1CNC2CCCS(=O)(=O)N1C2)C1(c2ccc(Cl)cc2)CCOCC1 (stereo partly drawn) [Example 40, (2S)-2-amino-2-[4-(4-chlorophenyl)tetrahydro-2H-pyran-4-yl]-N-(2-{2-[(9S)-2,2-dioxido-2-thia-1,7-diazabicyclo[4.3.1]dec-9-yl]ethyl}-3-fluorophenyl)ethanamide] | 99 |
| COC(=O)N[C@H](C(=O)Nc1cccc(F)c1CC[C@H]1CNC2CCCS(=O)(=O)N1C2)C1(c2ccc(F)cc2)CCC(F)(F)CC1 (stereo partly drawn) [Example 41, methyl {(1S)-1-[4,4-difluoro-1-(4-fluorophenyl)cyclohexyl]-2-[(2-{2-[(9S)-2,2-dioxido-2-thia-1,7-diazabicyclo[4.3.1]dec-9-yl]ethyl}-3-fluorophenyl)amino]-2-oxoethyl}carbamate] | 43 |
| COC(=O)N[C@H](C(=O)Nc1cccc(F)c1CC[C@H]1CNC2CCCS(=O)(=O)N1C2)C1(c2ccc(Cl)cc2)CCOCC1 (stereo partly drawn) [Example 42, methyl {(1S)-1-[4-(4-chlorophenyl)tetrahydro-2H-pyran-4-yl]-2-[(2-{2-[(9S)-2,2-dioxido-2-thia-1,7-diazabicyclo[4.3.1]dec-9-yl]ethyl}-3-fluorophenyl)amino]-2-oxoethyl}carbamate] | 31 |
| COC(=O)N[C@H](C(=O)Nc1cccc(F)c1CC[C@H]1CNC2CCCS(=O)(=O)N1C2)[C@@H](c1ccc(Cl)cc1)[C@H]1CCOC(C)(C)C1 (stereo partly drawn) [Example 43, methyl {(1S,2R)-2-(4-chlorophenyl)-2-[(4S)-2,2-dimethyltetrahydro-2H-pyran-4-yl]-1-[(2-{2-[(9S)-2,2-dioxido-2-thia-1,7-diazabicyclo[4.3.1]dec-9-yl]ethyl}-3-fluorophenyl)carbamoyl]ethyl}carbamate] | 8.5 |
| N[C@H](C(=O)Nc1cccc(F)c1CCC1CNC2CCCS(=O)(=O)N1C2)[C@H](c1cncc(F)c1)c1ccc(Cl)c(F)c1 (stereo partly drawn) [Example 44, (βS)-4-chloro-N-{2-[2-(2,2-dioxido-2-thia-1,7-diazabicyclo[4.3.1]dec-9-yl)ethyl]-3-fluorophenyl}-3-fluoro-β-(5-fluoropyridin-3-yl)-L-phenylalaninamide] | 4.5 |
| COc1ccc([C@H](c2ccc(Cl)cc2)[C@H](N)C(=O)Nc2cccc(F)c2CCC2CNC3CCCS(=O)(=O)N2C3)cn1 (stereo partly drawn) [Example 45, (βS)-4-chloro-N-{2-[2-(2,2-dioxido-2-thia-1,7-diazabicyclo[4.3.1]dec-9-yl)ethyl]-3-fluorophenyl}-β-(6-methoxypyridin-3-yl)-L-phenylalaninamide] | 3.8 |
| COC(=O)N[C@H](C(=O)Nc1cccc(F)c1CCC1CNC2CCCS(=O)(=O)N1C2)[C@H](c1cncc(F)c1)c1ccc(Cl)c(F)c1 (stereo partly drawn) [Example 46, methyl [(1S,2S)-2-(4-chloro-3-fluorophenyl)-1-({2-[2-(2,2-dioxido-2-thia-1,7-diazabicyclo[4.3.1]dec-9-yl)ethyl]-3-fluorophenyl}carbamoyl)-2-(5-fluoropyridin-3-yl)ethyl]carbamate] | 9.1 |
| COC(=O)N[C@H](C(=O)Nc1cccc(F)c1CCC1CNC2CCCS(=O)(=O)N1C2)[C@@H](c1ccc(Cl)cc1)c1ccc(OC)nc1 (stereo partly drawn) [Example 47, methyl [(1S,2S)-2-(4-chlorophenyl)-1-({2-[2-(2,2-dioxido-2-thia-1,7-diazabicyclo[4.3.1]dec-9-yl)ethyl]-3-fluorophenyl}carbamoyl)-2-(6-methoxypyridin-3-yl)ethyl]carbamate] | 18 |
| N[C@H](C(=O)Nc1cccc(F)c1CCC1CNC2CCCS(=O)(=O)N1C2)[C@@H](c1ccc(Cl)cc1)C1CC(F)(F)C1 (stereo partly drawn) [Example 48, (βR)-4-chloro-β-(3,3-difluorocyclobutyl)-N-{2-[2-(2,2-dioxido-2-thia-1,7-diazabicyclo[4.3.1]dec-9-yl)ethyl]-3-fluorophenyl}-L-phenylalaninamide] | 33 |
| COC(=O)N[C@H](C(=O)N[C@H]1CCC[C@@H]1CC[C@H]1CN[C@@H]2CCCS(=O)(=O)N1C2)C(c1ccc(F)cc1)c1ccc(F)cc1 [Example 49, methyl [(1S)-1-[bis(4-fluorophenyl)methyl]-2-{[(1S,2R)-2-{2-[(6R,9S)-2,2-dioxido-2-thia-1,7-diazabicyclo[4.3.1]dec-9-yl]ethyl}cyclopentyl]amino}-2-oxoethyl]carbamate] | 18 |
| COC(=O)N[C@H](C(=O)N[C@H]1CCC[C@@H]1CC[C@H]1CN[C@@H]2CCCS(=O)(=O)N1C2)[C@@H](c1ccc(F)cc1)C1CCOC(C)(C)C1 (stereo partly drawn) [Example 50, methyl [(1S,2R)-2-(2,2-dimethyltetrahydro-2H-pyran-4-yl)-1-{[(1S,2R)-2-{2-[(6R,9S)-2,2-dioxido-2-thia-1,7-diazabicyclo[4.3.1]dec-9-yl]ethyl}cyclopentyl]carbamoyl}-2-(4-fluorophenyl)ethyl]carbamate] | 28 |
| N[C@H](C(=O)Nc1cccc(F)c1CCC1CNC2CCCS(=O)(=O)N1C2)[C@@H](c1ccc(F)cc1)c1cccc(C2CC2)c1 (stereo partly drawn) [Example 51, (βS)-3-cyclopropyl-N-{2-[2-(2,2-dioxido-2-thia-1,7-diazabicyclo[4.3.1]dec-9-yl)ethyl]-3-fluorophenyl}-β-(4-fluorophenyl)-L-phenylalaninamide] | 20 |
